In patent US9061984B2 (University of Louisville Research Foundation, Inc., priority 2008, dated 2015):
≈ marks a conversion by molar mass, not a printed value. Where “and” joins values, the source holds several entries; their conditions need not be identical. Identical values can stand only once. Like-named read-outs stand apart in the source and are kept apart here.

Legend:
[1] = system: 3T3 cells; assay: Cell growth inhibition bioassay (sulforhodamine B); assay type: cell-based, mouse; settings: Mus musculus, NIH3T3; 48 h, SRB; read-out: GI50 in indicated cell line: 3T3
Outline: (§1)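 Cells were exposed to compound alongside matched solvent controls, then stained with sulforhodamine B. Percent growth inhibition was calculated from dye absorbance against the control.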

[2] = system: DU145 cells; assay: Cell growth inhibition bioassay (sulforhodamine B); assay type: cell-based, human; settings: Homo sapiens, DU-145; 48 h, SRB; read-out: GI50 in indicated cell line: DU145
Outline: (§2)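 Growth inhibition was measured colorimetrically with sulforhodamine B staining and expressed as percent inhibition relative to solvent-treated controls. Cell lines were human: MCF-7 breast adenocarcinoma, DU145 and PC3 prostate carcinoma/adenocarcinoma, H460 large cell lung cancer.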

[3] = system: H460 cells; assay: Cell growth inhibition bioassay (sulforhodamine B); assay type: cell-based, human; settings: Homo sapiens, NCI-H460; 48 h, SRB; read-out: GI50 in indicated cell line: H460
Outline: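 Human cancer cells (MCF-7 breast, DU145 and PC3 prostate, H460 large cell lung) were treated with compounds. Growth relative to solvent control was quantified by SRB protein stain.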

[4] = system: HT-29 cells; assay: Cell growth inhibition bioassay (sulforhodamine B); assay type: cell-based, human; settings: Homo sapiens, HT-29; 48 h, SRB; read-out: GI50 in indicated cell line: HT-29
Outline: as §1

[5] = system: K562 cells; assay: Cell growth inhibition bioassay (sulforhodamine B); assay type: cell-based, human; settings: Homo sapiens, K562; 48 h, SRB; read-out: GI50 in indicated cell line: K562
Outline: as §1

[6] = system: M-14 cells; assay: Cell growth inhibition bioassay (sulforhodamine B); assay type: cell-based, human; settings: Homo sapiens, M14; 48 h, SRB; read-out: GI50 in indicated cell line: M-14
Outline: as §1

[7] = system: MCF-7 cells; assay: Cell growth inhibition bioassay (sulforhodamine B); assay type: cell-based, human; settings: Homo sapiens, MCF7; 48 h, SRB; read-out: GI50 in indicated cell line: MCF-7
Outline: as §2

[8] = system: PC3 cells; assay: Cell growth inhibition bioassay (sulforhodamine B); assay type: cell-based; settings: Homo sapiens, PC-3; 48 h, SRB; read-out: GI50 in indicated cell line: PC3
Description: The cytotoxicity of compounds was assayed as follows. […] Appropriate solvent controls were tested for comparison. The percent inhibition of cell growth relative to the control was evaluated colorimetrically using a sulforhodamine B dye by comparison to the control. The calorimetric procedure followed that published in Skehan et al., J. Nat. Cancer Inst., […], pp. 1107-1112 (1990) and Boyd & Paull, Drug Dev. Res., Vol. 34, pp. 91-109 (1995). […] The cell lines are: 3T3 cells are BALB/3T3 clone A31 embryonic mouse fibroblast cells; H460 cells are human large cell lung cancer cells; DU145 cells are human prostate carcinoma cells; MCF-7 cells are human breast adenocarcinoma cells; M-14 cells are human melanoma cells; HT-29 cells are human colon adenocarcinoma cells; PC3 cells are human prostate adenocarcinoma cells; K562 cells are human chronic myelogenous leukemia cells; and VERO cells are African Green Monkey kidney epithelial cells.

[9] = system: Trypanosoma cruzi (Tulahuen C4); assay: In vitro anti-T. cruzi activity (β-galactosidase CPRG colorimetric assay in VERO monolayer); assay type: cell-based; settings: for T. cruzi Inhib. (%): 10 μg/mL of each compound, 120 hours; for IC50: Trypanosoma cruzi, TULAHUEN, Vero; for Selectivity Index Lab B: IC50, VERO/IC50, T. cruzi
[10] = system: peritoneal macrophages; assay: Toxicity to peritoneal macrophages (Trypan Blue count); assay type: cell-based, BALB/C mouse; settings: Mus musculus, Peritoneal macrophage, 48 h; Table 7; read-out: IC50 Macrophage
[11] = system: axenic amastigotes of L. amazonensis (strain MHOM/BR/76/LTB-012); assay: microbe, parasite or virus in culture; settings: Leishmania amazonensis
[12] = Cytotoxicity on VERO cells (MTT), anti-T. cruzi study; settings: African green monkey, VERO cells
[13] = system: L. amazonensis Lma CL1; assay: Activity against macrophages infected with Leishmania amastigotes; settings: Leishmania amazonensis, Macrophage, 48 h, read-out: IC50 L. amazonensis Lma CL1
Description: A cloned line of Leishmania amazonensis(strain MHOM/BR/76/LTB-012) was used in all experiments. Axenically grown amastigote forms of L. amazonensis were maintained by weekly subpassages in MAA/20 medium (Sereno and Lemesre, Antimicrobial Agents and Chemotherapy 41, 972-976 (1997)) at 32±1° C. in 25 cm^2 tissue culture flasks. L. peruviana (strain MHOM/PE/LCA08) and L. braziliensis (strainMHOM/PE/PER006) were maintained in the promastigote stage in a biphasic medium (blood agar with 0.89% NaCl, pH 7.4) at 24° C., with sub-passage every 3 to 4 days. Promastigotes (5×10^6 parasites) were then transferred to 25 cm2 tissue culture flasks containing 5 ml of M199 medium supplemented with 10% foetal bovine serum (FBS), pH 7.4. After 4 days, exponential phase promastigotes were centrifuged for 10 minutes at 1500 g and 4° C. The supernatant was discarded and replaced by fresh M199 medium supplemented with 20% FBS, pH 5.5. Axenic amastigotes transformation was then induced by increasing the temperature to 34° C. and incubating for 96 h (Teixeira et al., Parasitology Research 88, 963-968 (2002)).
Extracted cells were immediately deposited on sterile 4×4 mm cover glasses and placed in each well of a 96-well plate. Plates were incubated for 24 h at 37° C., 5% CO2 to allow cell adhesion (Castillo et al, Journal of Ethnopharmacology 112, 410-414 (2007)). Pre-warmed complete M199 medium was used twice to remove non-adherent cells. A neutral red method (Fautz et al., Mutation Research 253, 173-179 (1991)) was employed to determine cell concentration. Approximately 7×10^4 viable cells were deposited in each well for adhesion.
Infection of macrophages by amastigotes was determined as follows. […] Twelve hours after infection, a solution of the compounds to be tested was added to the cultures at various concentrations and maintained at 37° C. in 5% CO2 for a further forty-eight hours more. The plates were fixed with methanol and stained with 10% Giemsa stain. The percentage of infected macrophages was determined microscopically at 100 times magnification. The number of intracellular amastigotes was determined in 300 cells. Following Delorenzi et al. Antimicrobial Agents and Chemotherapy, 45, 1349-1354 (2001)) the percentage of infection rate (% IR) of each culture was calculated as follows: % IR=100−(infection rate of the treated culture/infection rate of the untreated culture)×100.
All experiments were performed in triplicate. ANOVA was used to test for statistical significance of differences (Epi-Info, Statview student program). The total parasite burden was calculated as a mean number of amastigotes per cells multiplied by the number of infected macrophages.

[14] = system: L. braziliensis PER006; assay: as above; settings: Leishmania braziliensis, Macrophage, 48 h, read-out: IC50 L. braziliensis PER006
[15] = system: L. peruviana LCA08; assay: as above; settings: Leishmania peruviana, Macrophage, 48 h, read-out: IC50 L. peruviana LCA08
[16] = system: VERO cells; assay: Cytotoxicity on VERO cells (MTT), anti-T. cruzi study; settings: Chlorocebus sabaeus, Vero, read-out: IC50 VERO, Table 3
[17] = system: VERO cells; assay: Cell growth inhibition bioassay (sulforhodamine B); assay type: cell-based, African Green Monkey; settings: Chlorocebus sabaeus, Vero; 48 h, SRB; read-out: GI50 in indicated cell line: VERO
Outline: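 Cytotoxicity is read by sulforhodamine B colorimetry following the Skehan protocol; values are growth inhibition relative to solvent-only wells.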

[18] = system: M. tuberculosis H37Rv; assay: Conventional aerobic (MABA) culture assay, luminescence MIC; assay type: cell-based, Mycobacterium tuberculosis; settings: for MIC: Mycobacterium tuberculosis, 168 h, aerobic, 7 days, H37Rv; for Selectivity Index H37Rv: VERO vs MABA MIC
[19] = system: non-replicating persistence Mycobacterium tuberculosis (NRP-TB); assay: Low oxygen recovery assay (LORA); assay type: cell-based; settings: value in brackets; for MIC: Mycobacterium tuberculosis, anaerobic 10 days, 28 hour recovery; for Selectivity Index LORA: VERO vs LORA MIC
[20] = Toxicity to peritoneal macrophages (Trypan Blue count); assay type: cell-based, BALB/C mouse; settings: BALB/C, mouse, Cytotoxicity Macrophages IC50
[21] = system: axenic amastigotes of L. amazonensis (strain MHOM/BR/76/LTB-012); settings: Table 8b
[22] = Cytotoxicity VERO cell (Table 6); settings: African green monkey, VERO cells
[23] = Table 2, read-out: IC50 - T. cruzi
[24] = Table 3, read-out: IC50 T. cruzi
[25] = 72 h, read-out: IC50 L. amazonensis
[26] = IC50 - VERO Cytotoxicity, Table 2
[27] = Lab B, read-out: T. cruzi IC50 Lab B
[28] = Lab A, read-out: T. cruzi IC50 Lab A

COc1ccc(/C=C/C(=O)c2c(O)cc(O)cc2OC)cc1 [Compound I-05, (E)-1-(2,4-Dihydroxy-6-methoxyphenyl)-3-(4-methoxyphenyl)-2-propen-1-one]
GI50 [1]: 6.7 µM
GI50 [2]: 9 µM
GI50 [3]: 14 µM
GI50 [4]: 21.6 µM
GI50 [5]: 17 µM
GI50 [6]: 19.6 µM
GI50 [7]: 17.3 µM
GI50 [8]: 19.3 µM
T. cruzi Inhib. (%) [9]: 68.88% and 38.57%
IC50 [9, 23]: 5.98 µg/mL
IC50 [9, 24]: > 25 µM
IC50 [10]: 166 µM
IC50 [11, 25]: 10 µM
IC50 [12, 26]: 5 µg/mL (≈ 16.6 µM)
IC50 [13]: 14.3 µM
IC50 [14]: 7.66 µM
IC50 [15]: 23 µM

COc1cc(O)cc(O)c1C(=O)/C=C/c1ccc2c(c1)OCO2 [Compound I-06, (2E)-3-(1,3-Benzodioxol-5-yl)-1-(2,4-dihydroxy-6-methoxyphenyl)-2-propen-1-one]
GI50 [1]: 5.1 µM
GI50 [2]: 12.4 µM
GI50 [3]: 15.6 µM
GI50 [4]: 20.7 µM
GI50 [5]: 16.2 µM
GI50 [6]: 22.6 µM
GI50 [7]: 20.4 µM
GI50 [8]: 18.5 µM
T. cruzi Inhib. (%) [9]: 49.61% and 69.78%
IC50 [9, 23]: 2.97 µg/mL
IC50 [9, 24]: 9.4 µM
IC50 [10]: 157 µM
IC50 [11, 25]: 4.1 µM
IC50 [12, 26]: 8 µg/mL (≈ 25.5 µM)
IC50 [16]: 25.5 µM
IC50 [13]: 16.6 µM
IC50 [14]: 8.6 µM
IC50 [15]: 19.7 µM

COc1ccc(/C=N\Nc2ncnc3sc4c(c23)CCCC4)cc1 [II-10]
GI50 [1]: 5 µg/mL
GI50 [2]: 7.8 µg/mL
GI50 [3]: 5.8 µg/mL
GI50 [4]: 5.9 µg/mL
GI50 [5]: 4.7 µg/mL
GI50 [6]: 5.5 µg/mL
GI50 [7]: 4.2 µg/mL
GI50 [17]: 6.4 µg/mL (≈ 18.9 µM)
Selectivity Index Lab B ([9]; Lab B): 1.1
IC50 [9, 27]: 5.4 µg/mL
MIC [18]: 24.1 µg/mL (≈ 71.2 µM)
Selectivity Index H37Rv [18]: 3.2
MIC [19]: 9.1 µg/mL (≈ 26.9 µM)
Selectivity Index LORA [19]: 8.5
IC50 at 48 h [20]: 21.6 µM
Selectivity Index [21]: 1.3
IC50 [22]: 76.7 µg/mL (≈ 227 µM)
IC50 ([11]; read-out: L. amazonensis IC50): 16.1 µM
IC50 ([12]; Cytotoxicity VERO Lab B, Lab B): 6 µg/mL (≈ 17.7 µM)

C(=N/Nc1ncnc2sc3c(c12)CCCC3)/c1ccco1 [II-18]
GI50 [1]: 2.3 µg/mL
GI50 [2]: 4.7 µg/mL
GI50 [3]: 2.1 µg/mL
GI50 [4]: 2.5 µg/mL
GI50 [5]: 1.2 µg/mL
GI50 [6]: 3.3 µg/mL
GI50 [7]: 0.3 µg/mL
GI50 [17]: 2.6 µg/mL (≈ 8.71 µM)
Selectivity Index Lab B ([9]; Lab B): 0.6
IC50 [9, 28]: 1.2 µg/mL
IC50 [9, 27]: 4.8 µg/mL
MIC [18]: 11.9 µg/mL (≈ 39.9 µM)
Selectivity Index H37Rv [18]: 1.0
MIC [19]: 2.9 µg/mL (≈ 9.72 µM)
Selectivity Index LORA [19]: 4.3
IC50 at 48 h [20]: 0.7 µM
Selectivity Index [21]: 0.6
IC50 [22]: 12.3 µg/mL (≈ 41.2 µM)
IC50 ([11]; read-out: L. amazonensis IC50): 1.2 µM
IC50 ([12]; Cytotoxicity VERO Lab B, Lab B): 3 µg/mL (≈ 10.1 µM)

FC(F)(F)c1ccc(/C=N\Nc2ncnc3sc4c(c23)CCCC4)cc1 [II-24]
GI50 [1]: 4 µg/mL
GI50 [2]: 5.6 µg/mL
GI50 [3]: 5.8 µg/mL
GI50 [4]: 2.6 µg/mL
GI50 [5]: 2.5 µg/mL
GI50 [6]: 6.4 µg/mL
GI50 [7]: 2 µg/mL
GI50 [17]: 5.4 µg/mL (≈ 14.3 µM)
Selectivity Index Lab B ([9]; Lab B): 0.8
IC50 [9, 27]: 4 µg/mL
MIC [18]: 6.1 µg/mL (≈ 16.2 µM)
Selectivity Index H37Rv [18]: 5.5 (5.5)
MIC [19]: 6 µg/mL (≈ 15.9 µM)
Selectivity Index LORA [19]: 5.5 (5.5)
IC50 at 48 h [20]: 3.1 µM
Selectivity Index [21]: 4.1
IC50 [22]: 33.5 µg/mL (≈ 89 µM)
IC50 ([11]; read-out: L. amazonensis IC50): 0.7 µM
IC50 ([12]; Cytotoxicity VERO Lab B, Lab B): 3 µg/mL (≈ 7.97 µM)

C/C(=N/Nc1ncnc2sc3c(c12)CCCC3)c1ccccc1 [II-47]
GI50 [1]: 1.7 µg/mL
GI50 [2]: 5.2 µg/mL
GI50 [3]: 5.1 µg/mL
GI50 [4]: 7.1 µg/mL
GI50 [5]: 3.5 µg/mL
GI50 [6]: 6.4 µg/mL
GI50 [7]: 5.3 µg/mL
GI50 [17]: 9.3 µg/mL (≈ 28.8 µM)
Selectivity Index Lab B ([9]; Lab B): 0.9
IC50 [9, 28]: 1.3 µg/mL
IC50 [9, 27]: 4.4 µg/mL
MIC [18]: 23.4 µg/mL (≈ 72.6 µM)
Selectivity Index H37Rv [18]: 1.4
MIC [19]: 2.8 µg/mL (≈ 8.68 µM)
Selectivity Index LORA [19]: 11.5
IC50 at 48 h [20]: 51.3 µM
Selectivity Index [21]: 5.6
IC50 [22]: 32.3 µg/mL (≈ 100 µM)
IC50 ([11]; read-out: L. amazonensis IC50): 9.2 µM
IC50 ([12]; Cytotoxicity VERO Lab B, Lab B): 4 µg/mL (≈ 12.4 µM)
